Test results reported in patent US20250154174A1, “BICYCLIC HETEROCYCLES AS MRGPRX2 ANTAGONISTS” (Incyte Corporation, priority 2023, published 2025).

Tests used:
MRGPRX2 [1] = target: T1, MRGPRX2 (Homo sapiens, UniProt Q96LB1); experiment: MRGPRX2 FLIPR calcium mobilization assay; format: cell-based; parameters: host or cells: CHO-K1; conditions: CHO-K1 cells stably expressing human MRGPRX2; agonist Cortistatin-14 at EC80; Ca2+ release
T1 sequence (Q96LB1 1-330): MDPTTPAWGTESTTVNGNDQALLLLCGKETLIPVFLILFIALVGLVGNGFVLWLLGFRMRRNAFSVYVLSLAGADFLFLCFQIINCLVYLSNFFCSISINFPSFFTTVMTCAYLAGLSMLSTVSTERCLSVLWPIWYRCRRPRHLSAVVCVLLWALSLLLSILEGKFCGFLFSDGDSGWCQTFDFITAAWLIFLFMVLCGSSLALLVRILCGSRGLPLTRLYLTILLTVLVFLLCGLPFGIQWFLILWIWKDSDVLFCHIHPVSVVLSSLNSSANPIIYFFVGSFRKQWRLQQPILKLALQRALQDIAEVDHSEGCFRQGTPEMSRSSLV
Protocol: Chinese hamster ovary (CHO-K1) cells stably expressing human MRGPRX2 were purchased from Genescript (Piscataway, NJ). The cells were maintained in culture medium (Ham's F-12K) containing 10% (v/v) FBS, 200 μg/mL Zeocin, 100 units/mL penicillin G and 100 μg/mL streptomycin (Life Technologies, Carlsbad, CA). For the assay, the cells were harvested and resuspended with culture medium without Zeocin before plating at 8000 cells per well in 20 μL in 384-well black clear bottom cell culture plates (VWR, Radnor, PA). After 24 h culture at 37° C. and 5% CO2, the cells were loaded with 20 μL/well of calcium dye (FLIPR Calcium 6 Assay Kit, Molecular Devices, San Jose, CA) diluted in loading buffer (1× Hank's Balanced Salt Solution (HBSS), 5 mM probenecid, 20 mM 4-(2-hydroxyethyl)-1-piperazineethanesulfonic acid (HEPES), pH 7.4, VWR, Radnor, PA) followed with 45 min. incubation at 37° C. and 40 min. at r.t. in the dark. Cells were then treated with the addition of 10 uL/well test compounds with a range of increasing concentrations diluted in the assay buffer (1×HBSS, 20 mM HEPES, pH 7.4, VWR, Radnor, PA) with FLIPR Penta (Molecular Devices. San Jose, CA) and incubated for 30 min. at r.t. Ca^2+ release was measured with FLIPR Penta with 10 s basal fluorescence measurement, then 12.5 μL of 5× agonist Cortistatin-14 (Tocris, Minneapolis, MN) at final concentration corresponding to the EC80 were added followed with continued fluorescence signal monitoring for an additional 110 s. The base line adjusted (median of first 10s base line) max value of the Relative Fluorescence Unit (RFU) was plotted against compound concentrations. Wells with no compound were served as the positive controls, and wells with high concentration of reference antagonist were used as negative controls. IC50 curves were globally fitted with 3- or 4-parameter Hill equation in a Genedata Screener (Genedata Basel, Switzerland).

MRGPRX2 [2] = target: T1, MRGPRX2; experiment: MRGPRX2 IP1 HTRF assay; format: cell-based; parameters: host or cells: CHO-K1; conditions: CHO-K1 cells stably expressing human MRGPRX2; agonist Cortistatin 14 1 μM; IP1 accumulation
Protocol: This assay measures compound inhibition of myo-Inositol 1 phosphate (IP1) accumulation in CHO-K1 cells. Chinese hamster ovary (CHO-K1) cells stably expressing human MRGPRX2 were purchased from GenScript (Piscataway, NJ).
For the HTRF IP1 determination, an IP-One GqKit (Perkin Elmer Cisbio, Waltham, MA), which includes all reagents and buffers in this protocol, was used. The cells were maintained in culture medium (Ham's F-12K) containing 10% (v/v) FBS, and 200 μg/mL Zeocin. For the assay, the cells were harvested and resuspended in culture medium with 2% FBS and without Zeocin, then were passed through a 40 μm filter. Cells were added at 20000 cells in a 5 μL/well to a 384-well white small volume cell culture plate (Greiner VWR, Radnor, PA) which contained 50 nL/well of test compound serially diluted at a selected concentration range in DMSO. 5 μL/well of prepared 2× Stimulation Buffer2 was then added to plates and was incubated at 37° C. with 5% CO2 for 1 h. 5 μL/well of agonist Cortistatin 14 (Bio-TechneR&D Systems, Minneapolis, MN) in 1×Stimulation Buffer 2, for a 1 μM final concentration, was then added to plates and incubated at 37° C. with 5% CO2 for 1 h. 6 μL/well of 1:20 diluted Detection Reagent Mix (d2 and Cryptate) was added to the plates and incubated for 1 h in the dark. Plates were read on the PHERAstar microplate reader (BMG Labtech Cary, NC) to determine the HTRF ratio of the acceptor and donor emission signals. The IP1 concentrations were calculated from a standard curve following the IP-One GQ kit instructions. Wells with DMSO only and wells with high concentration of reference antagonist were used as controls for normalization. Compound IC50 curves were globally fitted with 3- or 4-parameter Hill equation in a Genedata Screener (Genedata Basel, Switzerland).

| IC50 (MRGPRX2 [1]) | IC50 (MRGPRX2 [2]) | Compound |
| --- | --- | --- |
| 100 to 1000 nM | – | Cc1cc2nc(C(F)(F)F)cc(N[C@H]3CCC[C@@H](Nc4nccc5ncn(C)c45)C3)n2n1 [Example 6, (1R,3S)—N^1-(3-Methyl-3H-imidazo[4,5-c]pyridin-4-yl)-N^3-(2-methyl-5-(trifluoromethyl)pyrazolo[1,5-a]pyrimidin-7-yl)cyclohexane-1,3-diamine] |
| 0.1 to 100 nM | 100 to 1000 nM | FC(F)(F)c1cc(N[C@H]2CCC[C@@H](Nc3nnc4ccccn34)C2)n2nc(C(F)(F)F)cc2n1 [Example 18, (1R,3S)—N^1—([1,2,4]Triazolo[4,3-a]pyridin-3-yl)-N^3-(2,5-bis(trifluoromethyl)pyrazolo[1,5-a]pyrimidin-7-yl)cyclohexane-1,3-diamine] |
| 0.1 to 100 nM | 100 to 1000 nM | FC(F)(F)c1cn2c(N[C@H]3CCC[C@@H](Nc4nccn5cncc45)C3)cccc2n1 [Example 4, (1R,3S)—N^1-(Imidazo[1,5-a]pyrazin-8-yl)-N^3-(2-(trifluoromethyl)imidazo[1,2-a]pyridin-5-yl)cyclohexane-1,3-diamine] |
| 0.1 to 100 nM | 100 to 1000 nM | FC(F)(F)c1cc(N[C@H]2CCC[C@@H](Nc3nccn4cncc34)C2)n2nc(C(F)(F)F)cc2n1 [Example 14, (1S,3R)—N^1-(2,5-Bis(trifluoromethyl)pyrazolo[1,5-a]pyrimidin-7-yl)-N^3-(imidazo[1,5-a]pyrazin-8-yl)cyclohexane-1,3-diamine] |
| 0.1 to 100 nM | 0.1 to 100 nM | FC(F)(F)c1cc(N[C@H]2CCC[C@@H](Nc3nccc4nccn34)C2)n2nc(C(F)(F)F)cc2n1 [Example 17, (1S,3R)—N^1-(2,5-Bis(trifluoromethyl)pyrazolo[1,5-a]pyrimidin-7-yl)-N^3-(imidazo[1,2-c]pyrimidin-5-yl)cyclohexane-1,3-diamine] |
| 0.1 to 100 nM | 100 to 1000 nM | FC(F)(F)c1cc(N[C@H]2CCC[C@@H](Nc3nccn4cncc34)C2)n2nc(Br)cc2n1 [Example 12, (1S,3R)—N^1-(2-Bromo-5-(trifluoromethyl)pyrazolo[1,5-a]pyrimidin-7-yl)-N^3-(imidazo[1,5-a]pyrazin-8-yl)cyclohexane-1,3-diamine] |
| 0.1 to 100 nM | 100 to 1000 nM | Cn1cnc2ccnc(N[C@@H]3CCC[C@H](Nc4cc(C(F)(F)F)nc5cc(Br)nn45)C3)c21 [Example 13, (1S,3R)—N^1-(2-Bromo-5-(trifluoromethyl)pyrazolo[1,5-a]pyrimidin-7-yl)-N^3-(3-methyl-3H-imidazo[4,5-c]pyridin-4-yl)cyclohexane-1,3-diamine] |
| 0.1 to 100 nM | 100 to 1000 nM | Cn1cnc2ccnc(N[C@H]3CC[C@@H](Nc4cccc5nc(C(F)(F)F)cn45)CC3)c21 [Example 2, (1s,4s)-N^1-(3-Methyl-3H-imidazo[4,5-c]pyridin-4-yl)-N^4-(2-(trifluoromethyl)imidazo[1,2-a]pyridin-5-yl)cyclohexane-1,4-diamine] |
| 100 to 1000 nM | 100 to 1000 nM | Cn1cnc2ccnc(N[C@@H]3CCC[C@H](Nc4cccc5nc(C(F)(F)F)cn45)C3)c21 [Example 1, (1R,3S)—N^1-(3-Methyl-3H-imidazo[4,5-c]pyridin-4-yl)-N^3-(2-(trifluoromethyl)imidazo[1,2-a]pyridin-5-yl)cyclohexane-1,3-diamine] |
| 0.1 to 100 nM | 100 to 1000 nM | Cn1cnc2ccnc(N[C@@H]3CCC[C@H](Nc4cc(C(F)(F)F)nc5cc(C(F)(F)F)nn45)C3)c21 [Example 15, (1S,3R)—N^1-(2,5-Bis(trifluoromethyl)pyrazolo[1,5-a]pyrimidin-7-yl)-N^3-(3-methyl-3H-imidazo[4,5-c]pyridin-4-yl)cyclohexane-1,3-diamine] |
| 0.1 to 100 nM | 100 to 1000 nM | FC(F)(F)c1cc(N[C@H]2CCC[C@@H](Nc3nnc4ccccn34)C2)n2nc(Br)cc2n1 [Example 10, (1R,3S)—N^1—([1,2,4]Triazolo[4,3-a]pyridin-3-yl)-N^3-(2-bromo-5-(trifluoromethyl)pyrazolo[1,5-a]pyrimidin-7-yl)cyclohexane-1,3-diamine] |
| 0.1 to 100 nM | 100 to 1000 nM | FC(F)(F)c1cc(N[C@H]2CCC[C@@H](Nc3nccc4nccn34)C2)n2nc(Br)cc2n1 [Example 16, (1S,3R)—N^1-(2-Bromo-5-(trifluoromethyl)pyrazolo[1,5-a]pyrimidin-7-yl)-N^3-(imidazo[1,2-c]pyrimidin-5-yl)cyclohexane-1,3-diamine] |
| 0.1 to 100 nM | 100 to 1000 nM | FC(F)(F)c1cc(N[C@H]2CCC[C@@H](Nc3nccn4nccc34)C2)n2nc(Br)cc2n1 [Example 8, (1S,3R)—N^1-(2-Bromo-5-(trifluoromethyl)pyrazolo[1,5-a]pyrimidin-7-yl)-N^3-(pyrazolo[1,5-a]pyrazin-4-yl)cyclohexane-1,3-diamine] |
| 0.1 to 100 nM | 0.1 to 100 nM | FC(F)(F)c1cc(N[C@H]2CCC[C@@H](Nc3nccc4ncccc34)C2)n2nc(Br)cc2n1 [Example 9, (1S,3R)—N^1-(2-Bromo-5-(trifluoromethyl)pyrazolo[1,5-a]pyrimidin-7-yl)-N^3-(1,6-naphthyridin-5-yl)cyclohexane-1,3-diamine] |
| 0.1 to 100 nM | 0.1 to 100 nM | FC(F)(F)c1cc(N[C@H]2CCC[C@@H](Nc3nccc4ncccc34)C2)n2nc(C(F)(F)F)cc2n1 [Example 11, (1S,3R)—N^1-(2,5-Bis(trifluoromethyl)pyrazolo[1,5-a]pyrimidin-7-yl)-N^3-(1,6-naphthyridin-5-yl)cyclohexane-1,3-diamine] |
| 0.1 to 100 nM | 100 to 1000 nM | Cc1cc2nc(C(F)(F)F)cc(N[C@H]3CCC[C@@H](Nc4nccc5ncccc45)C3)n2n1 [Example 7, (1S,3R)—N^1-(2-Methyl-5-(trifluoromethyl)pyrazolo[1,5-a]pyrimidin-7-yl)-N^3-(1,6-naphthyridin-5-yl)cyclohexane-1,3-diamine] |
